Laboratory results reported in the supplement of paper PMC10784567.
± gives the standard deviation of the averaged measurements.

The test systems below were run with C=C1C[C@H]2C=Nc3cc(OCCCCCOc4cc5c(cc4OC)C(=O)N4CC(=C)C[C@H]4C=N5)c(OC)cc3C(=O)N2C1 [SG2057] (assay: absolute IC50 (cell viability, CellTiter-Glo); higher = less potent). Details: treatment time: 3 days.
Experimental: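 Large cancer cell line panel screens in 384-well plates. Cells were treated for 3 days with a 9-point dose titration of the free PBD dimer SG2057; viability was read with CellTiter-Glo. Absolute IC50 came from a four-parameter Hill fit normalised to the median of vehicle (DMSO) wells. Several independent screens (projects) per cell line are averaged; values in µM, lowest-dose floor about 1.524e-5 µM.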

KPP14388 and MM.1S are within error of each other in “absolute IC50” value: 960 pM for the first, 474 ± 490 pM for the second.

BA/F3 and G59 are within error of each other in “absolute IC50” value: 114 pM for the first, 803 ± 820 pM for the second.

Compared with HUH-7, KMM-1 is 3.5-fold lower in “absolute IC50” value: 1820 pM for the first, 515 ± 79 pM for the second.

Going from ONS-76 to Daudi, the “absolute IC50” value falls from 487 pM to 155 ± 240 pM (3.1-fold).

KYSE-140 and MCAS are within error of each other in “absolute IC50” value: 496 pM for the first, 420 ± 580 pM for the second.

Going from KR7251 to HCC3418, the “absolute IC50” value falls from 557 pM to 21.8 pM (26-fold).

Compared with SK-N-AS, 8305C is 3.8-fold higher in “absolute IC50” value: 187 pM for the first, 706 pM for the second.

GB-1 and UACC-62 are within error of each other in “absolute IC50” value: 1120 pM for the first, 770 ± 360 pM for the second.

HMVII and MC-38 Ovalbumin are within error of each other in “absolute IC50” value: 434 ± 730 pM for the first, 208 pM for the second.

Going from NCI-H2135 to PAN 02 X1, the “absolute IC50” value falls from 5600 pM to 839 pM (6.7-fold).

First: KELLY
Second: NCI-H2595
The “absolute IC50” value of the first is 18-fold lower: 120 pM for the first, 2200 ± 1900 pM for the second.

First: MR1-3
Second: COLO 792
The “absolute IC50” value of the first is 14-fold lower: 256 pM for the first, 3470 pM for the second.

HGC-27 and NCI-H2228 are within 1.5-fold of each other in “absolute IC50” value: 406 ± 86 pM for the first, 279 pM for the second.

Going from KP-3L to FTC-133, the “absolute IC50” value falls from 2690 ± 260 pM to 122 pM (22-fold).

1624-16997 (Tumor A) and 1624-17095 (Tumor A) are within 1.5-fold of each other in “absolute IC50” value: 926 pM for the first, 1310 pM for the second.

Going from 1321N1 to CI-1, the “absolute IC50” value rises from 32.1 pM to 104 ± 14 pM (3.2-fold).

Compared with Hs 695T, HCC1482 is 3.2-fold lower in “absolute IC50” value: 547 ± 210 pM for the first, 173 pM for the second.

First: MDA-MB-436
Second: NCI-H187
The “absolute IC50” value of the first is 3.3-fold higher: 326 ± 200 pM for the first, 100 pM for the second.

First: EBC-1
Second: 1624-16997 (Tumor C)
The “absolute IC50” value of the first is 1.8-fold lower: 876 pM for the first, 1550 pM for the second.

Compared with JVM-2, LN-229 is 7-fold higher in “absolute IC50” value: 374 ± 480 pM for the first, 2600 ± 1400 pM for the second.

Going from TC-1 to LoVo, the “absolute IC50” value rises from 384 pM to 1520 ± 430 pM (4-fold).

EMT6 Luciferase and NUGC-4 are within 1.5-fold of each other in “absolute IC50” value: 606 pM for the first, 443 pM for the second.

EFE-184 and G141 are within error of each other in “absolute IC50” value: 5810 ± 7500 pM for the first, 924 ± 650 pM for the second.
